# Reference: US20180280377A1, “Imidazo[4,5-c]quinolin-2-one Compounds and Their Use in Treating Cancer” (ASTRAZENECA AB, priority 2015, published 2018)
# Key:
# Assay type in all cases: cell-based
# ATM = molecular target: T1, ATM (Homo sapiens, UniProt Q13315); assay: ATM cellular potency assay (pATM Ser1981 in irradiated HT29 cells); settings: 1 h compound, X-ray irradiation, pATM (Ser1981); Table 2; read-out: Assay a) ATM Cell IC50
# T1 construct: endogenous in cells; host or cells: HT29 cells (ECACC #85061109)
# Experimental: (§1) The following assays were used to measure the effects of the compounds of the present invention: a) ATM cellular potency assay; b) PI3K cellular potency assay; c) mTOR cellular potency assay; d) ATR cellular potency assay. During the description of the assays, generally: • i. […] IC50 values were calculated using a smart fitting model in Genedata.
# Most ATM molecules in the cell are rapidly phosphorylated on this site after doses of radiation as low as 0.5 Gy, and binding of a phosphospecific antibody is detectable after the introduction of only a few DNA double-strand breaks in the cell.
# The rationale of the pATM assay is to identify inhibitors of ATM in cells. HT29 cells are incubated with test compounds for 1 h prior to X-ray-irradiation. 1 h later the cells are fixed and stained for pATM (Ser1981). The fluorescence is read on the arrayscan imaging platform.
# The following morning compounds of Formula (I) in 100% DMSO were added to assay plates by acoustic dispensing. After 1 h incubation at 37° C. and 5% CO2, plates (up to 6 at a time) were irradiated using the X-RAD 320 instrument (PXi) with equivalent to 600 cGy. Plates were returned to the incubator for a further 1 h. Then cells were fixed by adding 20 μl of 3.7% formaldehyde in PBS solution and incubating for 20 minutes at r.t. before being washed with 50μl/well PBS, using a Biotek EL405 plate washer. Then 20 μl of 0.1% Triton X100 in PBS was added and incubated for 20 minutes at r.t., to permeabalise cells. Then the plates were washed once with 50 μl/well PBS, using a Biotek EL405 plate washer.
# After 1 h incubation at r.t., the plates were washed three times with 50 μl/well PBS, using a Biotek EL405 plate washer, and plates were sealed and kept in PBS at 4° C. until read. Plates were read using an ArrayScan VTI instrument, using an XF53 filter with 10× objective.
# ATR = molecular target: T2, ATR (Homo sapiens, UniProt Q13535); assay: ATR cellular potency assay (pChk1 Ser345 in HT29 cells after 4NQO); settings: pChk1 (Ser 345); Table 2; read-out: Assay b) ATR Cell IC50
# T2 construct: endogenous in cells; host or cells: HT29 cells (ECACC #85061109)
# T2 sequence (Q13535 whole entry): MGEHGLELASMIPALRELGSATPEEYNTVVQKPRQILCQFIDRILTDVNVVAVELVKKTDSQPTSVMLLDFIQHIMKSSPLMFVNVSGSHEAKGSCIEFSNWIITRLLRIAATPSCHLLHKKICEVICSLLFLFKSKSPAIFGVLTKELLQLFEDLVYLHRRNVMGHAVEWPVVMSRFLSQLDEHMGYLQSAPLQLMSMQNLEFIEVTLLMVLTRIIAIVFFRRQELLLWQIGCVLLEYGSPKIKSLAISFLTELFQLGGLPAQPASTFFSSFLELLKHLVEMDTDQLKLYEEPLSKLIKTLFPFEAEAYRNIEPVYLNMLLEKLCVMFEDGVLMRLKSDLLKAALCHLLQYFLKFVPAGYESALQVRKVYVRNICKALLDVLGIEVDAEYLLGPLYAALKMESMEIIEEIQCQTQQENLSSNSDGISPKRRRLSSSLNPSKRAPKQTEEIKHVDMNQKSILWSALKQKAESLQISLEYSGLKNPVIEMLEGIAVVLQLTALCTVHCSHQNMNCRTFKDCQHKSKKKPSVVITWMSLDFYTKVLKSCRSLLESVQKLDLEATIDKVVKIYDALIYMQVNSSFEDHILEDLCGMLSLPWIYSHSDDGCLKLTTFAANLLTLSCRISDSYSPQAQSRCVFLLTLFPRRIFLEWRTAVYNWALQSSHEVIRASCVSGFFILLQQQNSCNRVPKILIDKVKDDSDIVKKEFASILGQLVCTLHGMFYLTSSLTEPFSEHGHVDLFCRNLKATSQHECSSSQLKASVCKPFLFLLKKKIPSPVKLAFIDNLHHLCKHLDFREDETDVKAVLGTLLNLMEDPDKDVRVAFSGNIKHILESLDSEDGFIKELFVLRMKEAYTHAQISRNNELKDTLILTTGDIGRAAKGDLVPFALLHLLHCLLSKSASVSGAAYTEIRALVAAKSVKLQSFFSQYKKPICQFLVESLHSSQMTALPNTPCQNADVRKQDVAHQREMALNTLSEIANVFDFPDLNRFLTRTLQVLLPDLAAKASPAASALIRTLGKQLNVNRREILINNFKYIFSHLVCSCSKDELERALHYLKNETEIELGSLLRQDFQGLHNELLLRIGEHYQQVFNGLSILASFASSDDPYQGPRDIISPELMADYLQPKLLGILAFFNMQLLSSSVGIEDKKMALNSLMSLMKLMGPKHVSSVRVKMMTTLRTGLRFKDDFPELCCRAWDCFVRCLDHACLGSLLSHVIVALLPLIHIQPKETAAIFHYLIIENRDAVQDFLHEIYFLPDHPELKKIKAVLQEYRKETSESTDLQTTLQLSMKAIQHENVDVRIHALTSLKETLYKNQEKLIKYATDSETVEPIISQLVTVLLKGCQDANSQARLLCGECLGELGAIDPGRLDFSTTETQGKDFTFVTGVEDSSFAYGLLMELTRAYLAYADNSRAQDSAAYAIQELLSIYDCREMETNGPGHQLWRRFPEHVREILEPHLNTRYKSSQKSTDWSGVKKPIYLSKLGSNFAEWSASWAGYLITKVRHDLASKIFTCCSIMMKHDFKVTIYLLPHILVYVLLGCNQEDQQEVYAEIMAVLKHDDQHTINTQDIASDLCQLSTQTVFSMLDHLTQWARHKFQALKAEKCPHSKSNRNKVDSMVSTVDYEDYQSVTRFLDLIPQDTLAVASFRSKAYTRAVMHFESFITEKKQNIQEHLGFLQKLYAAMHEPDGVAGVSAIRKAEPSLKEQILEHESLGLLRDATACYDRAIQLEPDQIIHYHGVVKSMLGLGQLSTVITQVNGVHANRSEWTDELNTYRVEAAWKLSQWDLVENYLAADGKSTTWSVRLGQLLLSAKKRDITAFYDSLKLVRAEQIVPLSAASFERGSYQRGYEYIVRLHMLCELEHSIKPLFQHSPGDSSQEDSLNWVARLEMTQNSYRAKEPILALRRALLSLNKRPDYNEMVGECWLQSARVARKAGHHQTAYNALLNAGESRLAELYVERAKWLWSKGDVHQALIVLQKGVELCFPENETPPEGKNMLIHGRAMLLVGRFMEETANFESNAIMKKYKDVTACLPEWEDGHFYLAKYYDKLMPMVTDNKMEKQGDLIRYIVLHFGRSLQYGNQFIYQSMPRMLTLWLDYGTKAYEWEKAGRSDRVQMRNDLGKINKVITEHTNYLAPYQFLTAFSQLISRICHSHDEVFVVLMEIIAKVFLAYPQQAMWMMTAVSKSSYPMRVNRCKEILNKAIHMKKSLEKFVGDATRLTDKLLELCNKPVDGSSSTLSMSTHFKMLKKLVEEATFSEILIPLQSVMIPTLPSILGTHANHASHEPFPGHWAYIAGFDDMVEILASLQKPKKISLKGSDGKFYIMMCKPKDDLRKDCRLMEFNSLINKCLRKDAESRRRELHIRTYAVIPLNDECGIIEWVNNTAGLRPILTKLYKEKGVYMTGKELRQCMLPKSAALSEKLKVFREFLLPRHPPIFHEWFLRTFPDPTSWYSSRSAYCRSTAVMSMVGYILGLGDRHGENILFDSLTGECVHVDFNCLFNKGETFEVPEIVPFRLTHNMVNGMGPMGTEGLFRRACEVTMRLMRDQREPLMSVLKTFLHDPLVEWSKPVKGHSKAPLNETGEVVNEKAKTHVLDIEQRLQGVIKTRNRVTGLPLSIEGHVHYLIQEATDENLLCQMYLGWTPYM
# T2 sequence (Q8WXE1 whole entry partner): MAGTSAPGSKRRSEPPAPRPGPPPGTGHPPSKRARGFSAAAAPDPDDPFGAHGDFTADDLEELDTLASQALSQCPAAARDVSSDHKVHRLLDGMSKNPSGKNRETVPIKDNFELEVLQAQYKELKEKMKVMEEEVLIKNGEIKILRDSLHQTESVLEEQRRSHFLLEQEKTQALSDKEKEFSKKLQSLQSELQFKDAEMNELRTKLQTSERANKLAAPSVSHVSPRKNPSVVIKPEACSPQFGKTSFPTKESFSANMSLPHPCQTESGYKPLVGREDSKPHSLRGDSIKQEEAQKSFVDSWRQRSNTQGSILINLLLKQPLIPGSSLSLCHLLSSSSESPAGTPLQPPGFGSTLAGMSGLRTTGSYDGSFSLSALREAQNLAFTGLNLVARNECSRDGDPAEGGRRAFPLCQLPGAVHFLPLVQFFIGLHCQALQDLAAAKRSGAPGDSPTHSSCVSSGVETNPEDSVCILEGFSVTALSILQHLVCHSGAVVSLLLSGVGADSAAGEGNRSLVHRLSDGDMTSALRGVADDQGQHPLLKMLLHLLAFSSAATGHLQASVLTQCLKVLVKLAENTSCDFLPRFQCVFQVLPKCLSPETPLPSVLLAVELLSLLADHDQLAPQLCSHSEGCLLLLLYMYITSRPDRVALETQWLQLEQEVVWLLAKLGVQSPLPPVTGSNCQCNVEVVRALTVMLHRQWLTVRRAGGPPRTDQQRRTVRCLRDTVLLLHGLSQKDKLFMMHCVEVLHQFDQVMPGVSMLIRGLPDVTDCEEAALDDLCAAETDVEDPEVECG
# Experimental: as §1
# ATR is a PI3-kinase-related kinase which phosphorylates multiple substrates on serine or threonine residues in response to DNA damage during or replication blocks. Chk1, a downstream protein kinase of ATR, plays a key role in DNA damage checkpoint control. Activation of Chk1 involves phosphorylation of Ser317 and Ser345 (the latter regarded as the preferential target for phosphorylation/activation by ATR).
# The following morning compound of Formula (I) in 100% DMSO were added to assay plates by acoustic dispensing. After 1 h incubation at 37° C. and 5% CO2, 40 nl of 3 mM 4NQO in 100% DMSO was added to all wells by acoustic dispensing, except minimum control wells which were left untreated with 4NQO to generate a null response control. Plates were returned to the incubator for a further 1 h. Then cells were fixed by adding 20 μl of 3.7% formaldehyde in PBS solution and incubating for 20 mins at r.t. Then […] of 0.1% Triton X100 in PBS was added and incubated for 10 minutes at r.t., to permeabalise cells. Then the plates were washed once with […] PBS, using a Biotek EL405 plate washer.
# After 2 h incubation at r.t., the plates were washed three times with […] PBS, using a Biotek EL405 plate washer, and plates were then sealed with black plate seals until read. Plates were read using an ArrayScan VTI instrument, using an XF53 filter with 10× objective.
# PI3Kα = PI3Kα (Homo sapiens, UniProt P42336); assay: PI3K cellular potency assay (phospho-Akt T308 in BT474 cells, ELISA); settings: 2 h, phospho-Akt (T308); Table 2; read-out: Assay c) PI3Kα Cell IC50
# Experimental: as §1
# This assay was used to measure PI3K-α inhibition in cells. PDK1 was identified as the upstream activation loop kinase of protein kinase B (Akt1), which is essential for the activation of PKB. Activation of the lipid kinase phosphoinositide 3 kinase (PI3K) is critical for the activation of PKB by PDK1.
# Following ligand stimulation of receptor tyrosine kinases, PI3K is activated, which converts PIP2 to PIP3, which is bound by the PH domain of PDK1 resulting in recruitment of PDK1 to the plasma membrane where it phosphorylates AKT at Thr308 in the activation loop.
# The aim of this cell-based mode of action assay is to identify compounds that inhibit PDK activity or recruitment of PDK1 to membrane by inhibiting PI3K activity. Phosphorylation of phospho-Akt (T308) in BT474c cells following treatment with compounds for 2 h is a direct measure of PDK1 and indirect measure of PI3K activity.
# The following morning compounds in 100% DMSO were added to assay plates by acoustic dispensing.
# Plates were incubated over night at 4° C. The next day the plates were washed with PBS buffer containing 0.05% Tween 20 and further incubated with a mouse monoclonal anti-phospho AKT T308 for 2 h. Plates were washed again as above before addition of a horse anti-mouse-HRP conjugated secondary antibody. […] The developed fluorescent product was stopped after 60 minutes by addition of Stop solution to the wells.
Structure (SMILES),IC50 (ATM) [nM],IC50 (ATR) [nM],IC50 (PI3Kα) [nM]
"CC(C)n1c(=O)n(C)c2cnc3ccc(-c4ccc(N5CC[C@@H](N(C)C)C5)nc4)cc3c21 [Example 1, 8-[6-[(3R)-3-(Dimethylamino)pyrrolidin-1-yl]-3-pyridyl]-1-isopropyl-3-methyl-imidazo[4,5-c]quinolin-2-one]",,,470
"CC(C)n1c(=O)n(C)c2cnc3cc(F)c(-c4ccc(N5CCC(N(C)C)CC5)nc4)cc3c21 [Example 3, 8-[6-[4-(dimethylamino)-1-piperidyl]-3-pyridyl]-7-fluoro-1-isopropyl-3-methyl-imidazo[4,5-c]quinolin-2-one]",,> 30000,19300
"CC(C)n1c(=O)n(C)c2cnc3ccc(-c4ccc(N5CC(N(C)C)C5)nc4)cc3c21 [Example 4, 8-[6-[3-(dimethylamino)azetidin-1-yl]-3-pyridyl]-1-isopropyl-3-methyl-imidazo[4,5-c]quinolin-2-one]",,,243
CN(C)[C@@H]1CCN(c2ccc(-c3cc4c(cc3F)ncc3c4n([C@H]4CCCOC4)c(=O)n3C)cn2)C1 [Example 15],1.46,> 30000,
CN(C)[C@H]1CCN(c2ccc(-c3ccc4ncc5c(c4c3)n([C@@H]3CCCOC3)c(=O)n5C)cn2)C1 [Example 16],18.6,> 22300,
CN(C)[C@H]1CCN(c2ccc(-c3ccc4ncc5c(c4c3)n([C@H]3CCCOC3)c(=O)n5C)cn2)C1 [Example 17],13.7,> 30000,
CN(C)[C@H]1CCN(c2ccc(-c3cc4c(cc3F)ncc3c4n([C@@H]4CCCOC4)c(=O)n3C)cn2)C1 [Example 19],63.4,> 30000,
CO[C@H]1C[C@@H](n2c(=O)n(C)c3cnc4cc(F)c(-c5ccc(N6CC[C@H](N(C)C)C6)nc5)cc4c32)C1 [Example 21],25.8,> 30000,
"CN(C)C1CCN(c2ccc(-c3ccc4ncc5c(c4c3)n(C3COC3)c(=O)n5C)cn2)CC1 [Example 38, 8-[6-[4-(dimethylamino)-1-piperidyl]-3-pyridyl]-3-methyl-1-(oxetan-3-yl)imidazo[4,5-c]quinolin-2-one]",3.91,> 30000,
"CN(C)C1CCN(c2ccc(-c3cc4c(cc3F)ncc3c4n([C@H]4CCCOC4)c(=O)n3C)cn2)CC1 [Example 41, 8-[6-[4-(dimethylamino)-1-piperidyl]-3-pyridyl]-7-fluoro-3-methyl-1-[(3S)-tetrahydropyran-3-yl]imidazo[4,5-c]quinolin-2-one]",2.02,> 30000,
"CO[C@H]1C[C@@H](n2c(=O)n(C)c3cnc4cc(F)c(-c5ccc(N6CCC[C@@H](N(C)C)C6)nc5)cc4c32)C1 [Example 43, 8-[6-[(3R)-3-(dimethylamino)-1-piperidyl]-3-pyridyl]-7-fluoro-1-(cis-3-methoxycyclobutyl)-3-methyl-imidazo[4,5-c]quinolin-2-one]",72,> 30000,
"CNC1CCN(c2ccc(-c3ccc4ncc5c(c4c3)n([C@@H]3CCCOC3)c(=O)n5C)cn2)CC1 [Example 58, 3-methyl-8-[6-[4-(methylamino)-1-piperidyl]-3-pyridyl]-1-[(3R)-tetrahydropyran-3-yl]imidazo[4,5-c]quinolin-2-one]",2.25,> 21800,
"CNC1CCN(c2ccc(-c3ccc4ncc5c(c4c3)n([C@H]3CCCOC3)c(=O)n5C)cn2)CC1 [Example 59, 3-methyl-8-[6-[4-(methylamino)-1-piperidyl]-3-pyridyl]-1-[(3S)-tetrahydropyran-3-yl]imidazo[4,5-c]quinolin-2-one]",1.38,> 30000,
"CNC1CCN(c2ccc(-c3ccc4ncc5c(c4c3)n(C3CCOCC3)c(=O)n5C)cn2)CC1 [Example 61, 3-methyl-8-[6-[4-(methylamino)-1-piperidyl]-3-pyridyl]-1-tetrahydropyran-4-yl-imidazo[4,5-c]quinolin-2-one]",0.753,> 25500,

# The next lines start with the values.
IC50 (ATM) [nM],IC50 (ATR) [nM],IC50 (PI3Kα) [nM],Structure (SMILES)
0.332,> 25700,1090,"CO[C@H]1CC[C@H](n2c(=O)n(C)c3cnc4ccc(-c5ccc(N6CCC(N(C)C)CC6)nc5)cc4c32)C1 (single isomer, unassigned) [Example 33, 8-[6-[4-(dimethylamino)-1-piperidyl]-3-pyridyl]-1-[trans-3-methoxycyclopentyl]-3-methyl-imidazo[4,5-c]quinolin-2-one]"
0.434,223,,CO[C@H]1CC[C@H](n2c(=O)n(C)c3cnc4ccc(-c5ccc(N6CC[C@@H](N(C)C)C6)nc5)cc4c32)CC1 [Example 12]
12.7,17500,,CO[C@H]1C[C@@H](n2c(=O)n(C)c3cnc4ccc(-c5ccc(N6CC[C@H](N(C)C)C6)nc5)cc4c32)C1 [Example 18]
16.6,9230,,"CN(C)C1CN(c2ccc(-c3ccc4ncc5c(c4c3)n([C@H]3CCCOC3)c(=O)n5C)cn2)C1 [Example 24, 8-[6-[3-(dimethylamino)azetidin-1-yl]-3-pyridyl]-3-methyl-1-[(3S)-tetrahydropyran-3-yl]imidazo[4,5-c]quinolin-2-one]"
6.61,2520,,"CO[C@H]1CC[C@H](n2c(=O)n(C)c3cnc4ccc(-c5ccc(N6CC(N(C)C)C6)nc5)cc4c32)CC1 [Example 25, 8-[6-[3-(dimethylamino)azetidin-1-yl]-3-pyridyl]-1-(trans-4-methoxycyclohexyl)-3-methyl-imidazo[4,5-c]quinolin-2-one]"
9.29,> 20100,,"CN(C)C1CN(c2ccc(-c3ccc4ncc5c(c4c3)n(C3CCC3)c(=O)n5C)cn2)C1 [Example 26, 1-cyclobutyl-8-[6-[3-(dimethylamino)azetidin-1-yl]-3-pyridyl]-3-methyl-imidazo[4,5-c]quinolin-2-one]"
5.9,5950,,"CN(C)C1CN(c2ccc(-c3ccc4ncc5c(c4c3)n([C@@H]3CCCOC3)c(=O)n5C)cn2)C1 [Example 27, 8-[6-[3-(dimethylamino)azetidin-1-yl]-3-pyridyl]-3-methyl-1-[(3R)-tetrahydropyran-3-yl]imidazo[4,5-c]quinolin-2-one]"
19.5,18800,,"CN(C)C1CN(c2ccc(-c3ccc4ncc5c(c4c3)n(C3CCOCC3)c(=O)n5C)cn2)C1 [Example 28, 8-[6-[3-(dimethylamino)azetidin-1-yl]-3-pyridyl]-3-methyl-1-tetrahydropyran-4-yl-imidazo[4,5-c]quinolin-2-one]"
0.911,> 30000,,"CN(C)C1CCN(c2ccc(-c3ccc4ncc5c(c4c3)n(C3CCC3)c(=O)n5C)cn2)CC1 [Example 37, 1-cyclobutyl-8-[6-[4-(dimethylamino)-1-piperidyl]-3-pyridyl]-3-methyl-imidazo[4,5-c]quinolin-2-one]"
